ChEMBL document CHEMBL6071157, “Improved N-phenylpyrrolamide inhibitors of DNA gyrase as antibacterial agents for high-priority bacterial strains” (Eur J Med Chem, 2024)
≈ marks a conversion by molar mass, not a printed value.

Key:
[1] = system: Acinetobacter baumannii; experiment: Antibacterial activity against Acinetobacter baumannii ATCC 17978 assessed as inhibition of bacterial growth by broth microdilution method; format: functional
[2] = biological target: T1, DNA topoisomerase 2-alpha (Homo sapiens, UniProt P11388); experiment: (§1) Inhibition of human DNA topoisomerase 2-alpha using linear pBR322 as substrate assessed as conversion of NADH to NAD+ preincubated for 10 to 15 mins in presence of pyruvate kinase/lactate dehydrogenase mix followed by ATP addition and measured after 30 mins by ATPase assay
[3] = system: Escherichia coli; experiment: Antibacterial activity against Escherichia coli ATCC 25922 assessed as inhibition of bacterial growth by broth microdilution method; format: functional
[4] = system: Klebsiella pneumoniae; experiment: Antibacterial activity against Klebsiella pneumoniae ATCC 10031 assessed as inhibition of bacterial growth by broth microdilution method; format: functional
[5] = system: Pseudomonas aeruginosa; experiment: Antibacterial activity against Pseudomonas aeruginosa ATCC 27853 assessed as inhibition of bacterial growth by broth microdilution metho; format: functional
[6] = system: Enterococcus faecium; experiment: Antibacterial activity against vancomycin-resistant Enterococcus faecium ATCC 700221 assessed as inhibition of bacterial growth by broth microdilution method; format: functional
[7] = system: Enterobacter cloacae; experiment: Antibacterial activity against Enterobacter cloacae subsp. cloacae ATCC 13047 assessed as inhibition of bacterial growth by broth microdilution method; format: functional
[8] = system: Staphylococcus aureus; experiment: Antibacterial against methicillin resistant Staphylococcus aureus ATCC 43300 assessed as inhibition of bacterial growth by broth microdilution method; format: functional; conditions: time 24 hrs
[9] = system: Escherichia coli; experiment: Inhibition of Escherichia coli DNA topoisomerase-IV assessed as residual activity at 1 uM by relaxation plate assay relative to control
[10] = system: Staphylococcus aureus; experiment: Antibacterial activity against Staphylococcus aureus ATCC 29213 assessed as inhibition of bacterial growth by broth microdilution method; format: functional
[11] = biological target: DNA gyrase (Escherichia coli, UniProt P0AES4+P0AES6); experiment: Inhibition of Escherichia coli DNA gyrase by supercoiling plate assay; format: protein-complex assay
[12] = biological target: T1, DNA topoisomerase 2-alpha; experiment: as §1, with “NAD+ by measuring residual activity at 100 uM” for “NAD+”, “assay relative to control” for “assay”; conditions: time 40-55 min
[13] = system: Staphylococcus aureus; experiment: Antibacterial against vancomycin-intermediate Staphylococcus aureus ATCC 700699 assessed as inhibition of bacterial growth by broth dilution method; format: functional
[14] = system: Enterococcus faecalis; experiment: Antibacterial activity against Enterococcus faecalis ATCC 29212 assessed as inhibition of bacterial growth by broth microdilution method; format: functional
[15] = Inhibition of Escherichia coli DNA topoisomerase-IV relaxation plate assay
[16] = Metabolic stability in human liver microsomes assessed as half life at 1 uM preincubated for 10 mins followed by NADPH addition and measured after 5 to 60 mins by LC-MS/MS analysis; format: ADME, Microsome; conditions: time 15-70 min
[17] = Metabolic stability in human liver microsomes assessed as intrinsic clearance at 1 uM preincubated for 10 mins followed by NADPH addition and measured after 5 to 60 mins by LC-MS/MS analysis; format: ADME, Microsome; conditions: time 15-70 min, read-out: CLH
[18] = Metabolic stability in mouse liver microsomes assessed as intrinsic clearance at 1 uM preincubated for 10 mins followed by NADPH addition and measured after 5 to 60 mins by LC-MS/MS analysis; format: ADME, Microsome; conditions: time 15-70 min, read-out: CLH
[19] = Metabolic stability in mouse liver microsomes assessed as half life at 1 uM preincubated for 10 mins followed by NADPH addition and measured after 5 to 60 mins by LC-MS/MS analysis; format: ADME, Microsome; conditions: time 15-70 min
[20] = biological target: DNA gyrase (Staphylococcus aureus, UniProt P0A0K8+P20831); experiment: Inhibition of Staphylococcus aureus DNA gyrase by supercoiling plate assay; format: protein-complex assay
[21] = system: MCF7; experiment: Cytotoxicity against human MCF7 cells assessed as cell viability at 50 uM incubated for 72 hrs by CellTiter 96 aqueous one solution reagent based MTS assay relative to control; format: functional; conditions: read-out: Activity
[22] = system: Escherichia coli; experiment: Inhibition of Escherichia coli DNA topoisomerase-IV assessed as residual activity at 10 uM by relaxation plate assay relative to control

Sequence of DNA gyrase (Staphylococcus aureus, UniProt P0A0K8+P20831) (P0A0K8 whole entry): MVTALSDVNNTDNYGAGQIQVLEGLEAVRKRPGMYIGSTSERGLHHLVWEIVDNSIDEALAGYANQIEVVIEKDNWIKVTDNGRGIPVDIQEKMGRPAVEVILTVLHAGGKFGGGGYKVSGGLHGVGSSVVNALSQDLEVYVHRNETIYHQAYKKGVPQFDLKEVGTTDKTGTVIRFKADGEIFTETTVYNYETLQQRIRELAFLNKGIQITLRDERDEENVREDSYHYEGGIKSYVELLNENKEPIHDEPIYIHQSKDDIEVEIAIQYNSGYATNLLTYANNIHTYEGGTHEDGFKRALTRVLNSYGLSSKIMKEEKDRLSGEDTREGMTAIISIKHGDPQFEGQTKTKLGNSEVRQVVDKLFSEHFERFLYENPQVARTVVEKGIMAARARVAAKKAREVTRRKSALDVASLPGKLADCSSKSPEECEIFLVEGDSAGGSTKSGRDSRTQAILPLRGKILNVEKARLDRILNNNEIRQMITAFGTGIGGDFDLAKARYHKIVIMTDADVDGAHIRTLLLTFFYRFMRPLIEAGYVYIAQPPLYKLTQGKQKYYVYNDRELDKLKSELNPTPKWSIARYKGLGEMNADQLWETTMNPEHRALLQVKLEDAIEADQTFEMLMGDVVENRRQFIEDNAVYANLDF
Sequence of DNA gyrase (Staphylococcus aureus, UniProt P0A0K8+P20831) (P20831 whole entry): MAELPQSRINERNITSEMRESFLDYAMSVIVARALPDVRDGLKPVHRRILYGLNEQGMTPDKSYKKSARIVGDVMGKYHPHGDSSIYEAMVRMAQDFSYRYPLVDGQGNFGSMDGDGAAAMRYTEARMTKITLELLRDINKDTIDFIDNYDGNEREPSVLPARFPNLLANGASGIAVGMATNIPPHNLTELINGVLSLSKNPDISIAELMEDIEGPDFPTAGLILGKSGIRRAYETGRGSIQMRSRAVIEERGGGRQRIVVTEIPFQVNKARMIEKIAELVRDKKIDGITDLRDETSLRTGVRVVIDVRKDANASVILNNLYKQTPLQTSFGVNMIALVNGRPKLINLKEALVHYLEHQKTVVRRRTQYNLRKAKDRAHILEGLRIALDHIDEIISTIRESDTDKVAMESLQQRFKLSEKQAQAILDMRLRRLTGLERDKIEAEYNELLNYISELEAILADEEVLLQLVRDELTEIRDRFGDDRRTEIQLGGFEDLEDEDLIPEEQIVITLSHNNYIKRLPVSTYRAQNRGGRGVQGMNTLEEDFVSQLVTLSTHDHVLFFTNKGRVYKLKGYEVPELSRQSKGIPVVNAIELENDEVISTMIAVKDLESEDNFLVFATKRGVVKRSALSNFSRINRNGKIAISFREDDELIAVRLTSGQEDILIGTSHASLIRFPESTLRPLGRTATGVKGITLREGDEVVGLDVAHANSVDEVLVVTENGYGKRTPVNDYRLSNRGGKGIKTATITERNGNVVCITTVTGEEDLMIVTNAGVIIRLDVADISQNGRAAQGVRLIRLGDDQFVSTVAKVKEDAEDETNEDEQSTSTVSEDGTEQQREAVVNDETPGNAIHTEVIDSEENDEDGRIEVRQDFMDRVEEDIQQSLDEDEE
T1 sequence (P11388 whole entry): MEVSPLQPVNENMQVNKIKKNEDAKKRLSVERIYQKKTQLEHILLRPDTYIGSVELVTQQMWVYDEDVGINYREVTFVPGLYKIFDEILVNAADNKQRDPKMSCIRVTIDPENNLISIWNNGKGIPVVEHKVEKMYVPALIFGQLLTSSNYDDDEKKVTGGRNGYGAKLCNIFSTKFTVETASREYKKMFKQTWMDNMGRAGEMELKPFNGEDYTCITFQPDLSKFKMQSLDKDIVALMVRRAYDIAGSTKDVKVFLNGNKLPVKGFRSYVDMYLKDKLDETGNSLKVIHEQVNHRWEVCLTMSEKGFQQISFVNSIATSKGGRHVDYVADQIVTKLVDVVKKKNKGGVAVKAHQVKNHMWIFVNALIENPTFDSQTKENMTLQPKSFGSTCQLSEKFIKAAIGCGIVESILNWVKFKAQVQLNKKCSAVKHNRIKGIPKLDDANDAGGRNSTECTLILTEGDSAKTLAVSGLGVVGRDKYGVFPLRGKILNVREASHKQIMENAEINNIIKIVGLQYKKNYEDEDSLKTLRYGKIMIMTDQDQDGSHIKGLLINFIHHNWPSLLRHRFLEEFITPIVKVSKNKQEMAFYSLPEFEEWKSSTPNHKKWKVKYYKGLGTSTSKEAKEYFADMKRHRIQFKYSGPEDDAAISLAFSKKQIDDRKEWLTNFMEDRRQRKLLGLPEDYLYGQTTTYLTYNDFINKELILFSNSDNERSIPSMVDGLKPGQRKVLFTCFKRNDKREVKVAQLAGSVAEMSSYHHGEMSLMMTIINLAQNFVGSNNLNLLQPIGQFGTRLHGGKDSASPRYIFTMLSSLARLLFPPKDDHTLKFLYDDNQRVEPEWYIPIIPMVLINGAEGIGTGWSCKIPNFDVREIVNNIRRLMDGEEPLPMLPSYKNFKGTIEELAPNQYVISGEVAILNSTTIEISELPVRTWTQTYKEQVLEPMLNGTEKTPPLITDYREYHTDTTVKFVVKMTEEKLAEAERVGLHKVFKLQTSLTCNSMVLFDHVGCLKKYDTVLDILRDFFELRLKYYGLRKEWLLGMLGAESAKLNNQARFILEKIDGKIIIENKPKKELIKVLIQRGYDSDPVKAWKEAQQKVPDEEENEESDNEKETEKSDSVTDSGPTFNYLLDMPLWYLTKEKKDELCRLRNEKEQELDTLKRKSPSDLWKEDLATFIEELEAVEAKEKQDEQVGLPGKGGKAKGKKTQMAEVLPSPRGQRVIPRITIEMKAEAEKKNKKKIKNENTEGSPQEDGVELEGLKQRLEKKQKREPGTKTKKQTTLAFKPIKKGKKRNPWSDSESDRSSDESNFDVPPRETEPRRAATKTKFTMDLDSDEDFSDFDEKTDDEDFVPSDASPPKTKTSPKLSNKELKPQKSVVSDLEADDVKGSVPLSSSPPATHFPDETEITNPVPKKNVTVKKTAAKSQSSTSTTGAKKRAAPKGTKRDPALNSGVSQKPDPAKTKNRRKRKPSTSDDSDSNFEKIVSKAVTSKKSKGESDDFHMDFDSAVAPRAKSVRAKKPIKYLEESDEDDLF

**Q.** What does the source list for `Cc1[nH]c(C(=O)Nc2ccc(-c3nnn[nH]3)cc2N2CCOCC2)c(Cl)c1Cl`?
**A.** MIC [1]: > 64 µg/mL; IC50 [2]: 39200 nM; MIC [3]: > 64 µg/mL; MIC [4]: > 64 µg/mL; MIC [5]: > 64 µg/mL; MIC [6]: > 64 µg/mL; MIC [7]: > 64 µg/mL; MIC [8]: > 64 µg/mL; Activity [9]: 77%; MIC [10]: > 64 µg/mL; IC50 [11]: 44.5 nM

**Q.** Which Activity [12] does the source give for `Cc1[nH]c(C(=O)Nc2ccc(-c3noc(=O)[nH]3)cc2N2CCNCC2)c(Cl)c1Cl.Cl` here?
**A.** The Activity was 101%.

**Q.** And the MIC [13]?
**A.** The MIC was over 64 µg/mL.

**Q.** What about the MIC [1] of the same compound?
**A.** Its MIC is over 64 µg/mL.

**Q.** What about the MIC [14] of the same compound?
**A.** Its MIC is over 64 µg/mL.

**Q.** What about the IC50 [15] of the same compound?
**A.** The IC50 was 3150 nM.

**Q.** What about the MIC [3] of the same compound?
**A.** Its MIC is over 64 µg/mL.

**Q.** What about the MIC [4] of the same compound?
**A.** The MIC was over 64 µg/mL.

**Q.** What about the MIC [5] of the same compound?
**A.** The MIC was over 64 µg/mL.

**Q.** And the MIC [6]?
**A.** Its MIC is over 64 µg/mL.

**Q.** And the MIC [7]?
**A.** Its MIC is over 64 µg/mL.

**Q.** What about the MIC [8] of the same compound?
**A.** The MIC was over 64 µg/mL.

**Q.** And the MIC [10]?
**A.** Its MIC is over 64 µg/mL.

**Q.** And the IC50 [11]?
**A.** Its IC50 is 6.07 nM.

**Q.** For `C[C@]12CC[C@H]3[C@@H](CCC4=CC(=O)CC[C@@]43C)[C@@H]1CC[C@@H]2O` [TESTOSTERONE], which half-life at 1 µM [16] is on record?
**A.** Its half-life at 1 µM is 22.7 min.

**Q.** What about the microsomal CLint at 1 µM [17] of the same compound?
**A.** Its microsomal CLint at 1 µM is 60.9 µL/min/mg.

**Q.** What about the microsomal CLint at 1 µM [18] of the same compound?
**A.** Its microsomal CLint at 1 µM is 169 µL/min/mg.

**Q.** What about the half-life at 1 µM [19] of the same compound?
**A.** Its half-life at 1 µM is 8.2 min.

**Q.** For `O=C(O)Cc1ccccc1Nc1c(Cl)cccc1Cl` [DICLOFENAC], which microsomal CLint at 1 µM [17] is on record?
**A.** Its microsomal CLint at 1 µM is 238 µL/min/mg.

**Q.** And the microsomal CLint at 1 µM [18]?
**A.** The microsomal CLint at 1 µM was 28.4 µL/min/mg.

**Q.** What about the half-life at 1 µM [19] of the same compound?
**A.** Its half-life at 1 µM is 48.8 min.

**Q.** For `Cc1[nH]c(C(=O)Nc2ccc(-c3noc(=O)[nH]3)cc2N2CCCC(CN)C2)c(Cl)c1Cl.Cl` (centres undefined), which Activity [12] is on record?
**A.** Its Activity is 93%.

**Q.** What about the MIC [13] of the same compound?
**A.** Its MIC is 2 µg/mL.

**Q.** What about the IC50 [20] of the same compound?
**A.** Its IC50 is 24.1 nM.

**Q.** What about the MIC [1] of the same compound?
**A.** Its MIC is over 64 µg/mL.

**Q.** What about the MIC [14] of the same compound?
**A.** The MIC was 0.25 µg/mL.

**Q.** And the IC50 [15]?
**A.** The IC50 was 41.8 nM.

**Q.** And the MIC [3]?
**A.** The MIC was over 64 µg/mL.

**Q.** What about the MIC [4] of the same compound?
**A.** The MIC was 2 µg/mL.

**Q.** What about the MIC [5] of the same compound?
**A.** Its MIC is over 64 µg/mL.

**Q.** What about the MIC [6] of the same compound?
**A.** The MIC was 2 µg/mL.

**Q.** And the viability at 50 µM [21]?
**A.** Its viability at 50 µM is 88%.

**Q.** And the MIC [7]?
**A.** The MIC was over 64 µg/mL.

**Q.** And the MIC [8]?
**A.** Its MIC is 4 µg/mL.

**Q.** And the MIC [10]?
**A.** The MIC was 4 µg/mL.

**Q.** What about the IC50 [11] of the same compound?
**A.** Its IC50 is 3.19 nM.

**Q.** Which results are given for `Cc1[nH]c(C(=O)Nc2ccc(-n3nn[nH]c3=O)cc2N2CCN(c3ccccc3)CC2)c(Cl)c1Cl`?
**A.** MIC [13]: 0.5 µg/mL (≈ 0.974 µM); MIC [1]: > 32 µg/mL; IC50 [2]: 33600 nM; MIC [14]: 0.5 µg/mL (≈ 0.974 µM); MIC [3]: > 32 µg/mL; MIC [4]: > 32 µg/mL; MIC [5]: > 32 µg/mL; MIC [6]: 0.5 µg/mL (≈ 0.974 µM); viability at 50 µM [21]: 58%; MIC [7]: > 32 µg/mL; MIC [8]: > 32 µg/mL; MIC [10]: > 32 µg/mL; Activity [22]: 104%; IC50 [11]: 7.8 nM

**Q.** For `Cc1[nH]c(C(=O)Nc2ccc(-n3nn[nH]c3=O)cc2N2CC[C@H](N)C2)c(Cl)c1Cl.Cl`, which Activity [12] is on record?
**A.** The Activity was 108%.

**Q.** And the MIC [13]?
**A.** Its MIC is 64 µg/mL.

**Q.** What about the IC50 [20] of the same compound?
**A.** Its IC50 is 121 nM.

**Q.** What about the MIC [1] of the same compound?
**A.** Its MIC is over 32 µg/mL.

**Q.** And the MIC [14]?
**A.** The MIC was 64 µg/mL.

**Q.** And the MIC [3]?
**A.** The MIC was over 32 µg/mL.

**Q.** What about the MIC [4] of the same compound?
**A.** The MIC was over 32 µg/mL.

**Q.** And the MIC [5]?
**A.** The MIC was over 32 µg/mL.

**Q.** And the MIC [6]?
**A.** The MIC was over 32 µg/mL.

**Q.** And the MIC [7]?
**A.** The MIC was over 32 µg/mL.

**Q.** And the MIC [8]?
**A.** Its MIC is over 32 µg/mL.

**Q.** What about the MIC [10] of the same compound?
**A.** The MIC was over 32 µg/mL.

**Q.** And the Activity [22]?
**A.** The Activity was 26%.

**Q.** And the IC50 [11]?
**A.** The IC50 was 4.9 nM.

**Q.** With `Cc1[nH]c(C(=O)Nc2ccc(-c3nnn[nH]3)cc2N2CCCC(CN)C2)c(Cl)c1Cl.Cl` (centres undefined) as the compound, how does the Activity [12] read?
**A.** Its Activity is 91%.

**Q.** What about the MIC [13] of the same compound?
**A.** The MIC was over 64 µg/mL.

**Q.** What about the IC50 [20] of the same compound?
**A.** Its IC50 is 35 nM.

**Q.** And the MIC [1]?
**A.** The MIC was over 64 µg/mL.

**Q.** And the MIC [14]?
**A.** The MIC was 8 µg/mL.

**Q.** What about the IC50 [15] of the same compound?
**A.** The IC50 was 60.3 nM.

**Q.** And the MIC [3]?
**A.** Its MIC is over 64 µg/mL.

**Q.** What about the MIC [4] of the same compound?
**A.** Its MIC is 64 µg/mL.

**Q.** And the MIC [5]?
**A.** Its MIC is over 64 µg/mL.

**Q.** And the MIC [6]?
**A.** Its MIC is 16 µg/mL.

**Q.** And the viability at 50 µM [21]?
**A.** The viability at 50 µM was 117%.

**Q.** And the MIC [7]?
**A.** Its MIC is over 64 µg/mL.

**Q.** What about the MIC [8] of the same compound?
**A.** The MIC was over 64 µg/mL.

**Q.** And the MIC [10]?
**A.** Its MIC is 16 µg/mL.

**Q.** And the IC50 [11]?
**A.** The IC50 was 2.16 nM.

**Q.** Which results are given for `Cc1[nH]c(C(=O)Nc2ccc(-c3noc(=O)[nH]3)cc2N2CCC(NC(=O)OC(C)(C)C)CC2)c(Cl)c1Cl`?
**A.** Activity [12]: 30%; MIC [13]: 0.063 µg/mL (≈ 0.114 µM); half-life at 1 µM [16]: 76.2 min; MIC [1]: > 64 µg/mL; MIC [14]: < 0.031 µg/mL; MIC [3]: > 64 µg/mL; MIC [4]: > 64 µg/mL; MIC [5]: > 64 µg/mL; MIC [6]: 0.5 µg/mL (≈ 0.907 µM); viability at 50 µM [21]: 44%; MIC [7]: > 64 µg/mL; MIC [8]: 0.5 µg/mL (≈ 0.907 µM); Activity [9]: 62%; MIC [10]: > 64 µg/mL; IC50 [11]: 6.7 nM
